Test system: hypertensive subjects
Assay: Seated automated office blood pressure (AOBP) in randomized, placebo-controlled, dose-ranging study
Format: in vivo, human
Conditions: Part 1
Experimental: A randomized, double-blinded, placebo-controlled, dose-ranging, multicenter study was conducted to evaluate the effect of orally administered Compound A HBr on blood pressure for the treatment of hypertension in male and female subjects ≥18 years of age.
The study consists of two parts. For enrollment into Part 1 of the study, a subject's value of plasma renin activity (PRA) must be ≤1 ng/mL/h based on morning measurement. If the value of PRA >1 ng/mL/h based on morning measurement, then subjects may be eligible to enter Part 2 of the study.
For Part 1, 163 enrolled subjects ≥18 years of age were randomized into 6 equal treatment groups (1:1:1:1:1:1) to 12.5 mg BID, 25 mg BID, 12.5 mg QD, 50 mg QD, 100 mg QD, or placebo. After a review of interim clinical data, the 2 lowest dose levels (12.5 mg QD and 12.5 mg BID) were stopped for future randomization due to a lack of consistent meaningful reduction of blood pressure, but the patients randomized to that point remained in the study through completion. Thus, after the review of interim clinical data, subjects were randomized into 4 equal treatment groups (1:1:1:1) to 25 mg BID, 50 mg QD, 100 mg QD, or placebo.
For Part 2, 36 enrolled subjects ≥18 years of age were randomized (5:1) to either 100 mg QD Compound A HBr or placebo such that the Compound A HBr treatment group consisted of approximately 30 subjects and the placebo treatment group will consist of approximately 6 subjects.
Subjects orally administered the assigned study drug (Compound A HBr or placebo) according to the assigned dosing regimen for 8 weeks beginning on Study Day 1. All subjects in Part 1 (regardless of dosing group) received BID dosing to preserve the integrity of the blind; active drug is administered as the morning dose for all QD dose groups. Subjects returned to the research facility or were seen by the clinical investigator or approved home health care professional at the end of Study Weeks 1, 2, 3, 4, 5, 6, 7, and 8 (±2 days) for protocol-defined efficacy and safety assessments and procedures, assessment of adverse events (AEs), and confirmation of compliance with study drug usage. Subjects also completed a telephone visit and blood pressure (BP) check at home approximately 3 days post last dose of study drug. Subjects attended up to 14 full clinic visits, including a pre-Screening visit, a Screening/start of Placebo Run-in visit, a second visit during Placebo Run-in, a clinic visit to initiate the ABPM procedure, a Randomization visit, 8 weekly visits during double-blind treatment, and an end-of-study visit scheduled 4 weeks after the last study treatment for final efficacy and safety assessments.
An automated oscillometric sphygmomanometer device was used to measure the subjects' systolic and diastolic blood pressure in office after approximately 5 minutes of rest in the seated position.
The primary endpoint is the change in office-measured (mean of last 2 of 5 unattended measurements using an automated oscillometric sphygmomanometer device after approximately 5 minutes of rest in the seated position) systolic blood pressure (SBP) from baseline to the end of Study Week 8.
Secondary endpoints of this study were: • (a) Change in 24-hour ambulatory blood pressure monitoring (ABPM) parameters (systolic and diastolic) from baseline to the end of Study Week 7. • (b) Change in office-measured SBP from baseline to the end of Study Weeks 1, 2, 3, 4, 5, 6, and 7. • (c) Change in office-measured diastolic blood pressure (DBP) from baseline to the end of Study Weeks 1, 2, 3, 4, 5, 6, 7, and 8. • (d) Proportion of subjects who achieve office-measured BP of ≤130/80 mm Hg by the end of Study Week 8.

[1] = 25 mg BID, BMI at baseline 25-30 kg/m^2
[2] = 25 mg BID, BMI at baseline <25 kg/m^2
[3] = 25 mg BID, BMI at baseline >30 kg/m^2
[4] = 25 mg BID, Seated SBP Tertile High
[5] = 25 mg BID, Seated SBP Tertile Low
[6] = 25 mg BID, Seated SBP Tertile Middle
[7] = 25 mg BID, Systolic Blood Pressure Tertile at Baseline High
[8] = 25 mg BID, Systolic Blood Pressure Tertile at Baseline Low
[9] = 25 mg BID, Systolic Blood Pressure Tertile at Baseline Middle
[10] = 25 mg BID, Thiazide Diuretic Use at Baseline No
[11] = 25 mg BID, Thiazide Diuretic Use at Baseline Yes

## CC(=O)N[C@H]1CC[C@H](NC(=O)CN2CCN(c3nncc(-c4ccc(C)cc4)n3)CC2)CC1 [Compound A HBr]
25 mg BID, BMI >30 kg/m^2
  Mean (SD) Change from Baseline at Week 8 in Automated Office-Measured Diastolic Blood Pressure: −5.33 (8.88) mmHg
[1]
  Mean (SD) Automated Office-Measured Systolic Blood Pressure at Wk 8: 134.11 (15.72) mmHg
  Mean (SD) Change from Baseline at Week 8 in Automated Office-Measured Systolic Blood Pressure: −4.89 (13.17) mmHg
[2]
  Mean (SD) Automated Office-Measured Systolic Blood Pressure at Wk 8: 126.25 (18.52) mmHg
  Mean (SD) Change from Baseline at Week 8 in Automated Office-Measured Systolic Blood Pressure: −18.13 (15.56) mmHg
[3]
  Mean (SD) Automated Office-Measured Systolic Blood Pressure at Wk 8: 130.93 (17.43) mmHg
  Mean (SD) Change from Baseline at Week 8 in Automated Office-Measured Systolic Blood Pressure: −11.13 (13.83) mmHg
25 mg BID, Race Black or AA
  Mean (SD) Automated Office-Measured Diastolic Blood Pressure at Wk 8: 75.43 (10.05) mmHg
  Mean (SD) Automated Office-Measured Systolic Blood Pressure at Wk 8: 124.00 (15.68) mmHg
  Mean (SD) Change from Baseline at Week 8 in Automated Office-Measured Diastolic Blood Pressure: −7.79 (9.03) mmHg
  Mean (SD) Change from Baseline at Week 8 in Automated Office-Measured Systolic Blood Pressure: −13.29 (15.91) mmHg
25 mg BID, Race Other
  Mean (SD) Automated Office-Measured Diastolic Blood Pressure at Wk 8: 75.43 (14.14) mmHg
  Mean (SD) Automated Office-Measured Systolic Blood Pressure at Wk 8: 133.71 (16.53) mmHg
  Mean (SD) Change from Baseline at Week 8 in Automated Office-Measured Diastolic Blood Pressure: −2.31 (12.36) mmHg
  Mean (SD) Change from Baseline at Week 8 in Automated Office-Measured Systolic Blood Pressure: −9.07 (13.59) mmHg
[4]
  Mean (SD) Automated Office-Measured Diastolic Blood Pressure at Wk 8: 74.00 (7.39) mmHg
  Mean (SD) Change from Baseline at Week 8 in Automated Office-Measured Diastolic Blood Pressure: −7.36 (5.62) mmHg
[5]
  Mean (SD) Automated Office-Measured Diastolic Blood Pressure at Wk 8: 72.40 (9.55) mmHg
  Mean (SD) Change from Baseline at Week 8 in Automated Office-Measured Diastolic Blood Pressure: −6.15 (8.84) mmHg
[6]
  Mean (SD) Automated Office-Measured Diastolic Blood Pressure at Wk 8: 79.09 (17.89) mmHg
  Mean (SD) Change from Baseline at Week 8 in Automated Office-Measured Diastolic Blood Pressure: 0.91 (15.57) mmHg
25 mg BID, Sex Female
  Mean (SD) Automated Office-Measured Diastolic Blood Pressure at Wk 8: 77.12 (15.02) mmHg
  Mean (SD) Automated Office-Measured Systolic Blood Pressure at Wk 8: 132.88 (16.99) mmHg
  Mean (SD) Change from Baseline at Week 8 in Automated Office-Measured Diastolic Blood Pressure: −2.41 (13.79) mmHg
  Mean (SD) Change from Baseline at Week 8 in Automated Office-Measured Systolic Blood Pressure: −10.62 (14.75) mmHg
25 mg BID, Sex Male
  Mean (SD) Automated Office-Measured Diastolic Blood Pressure at Wk 8: 72.82 (9.34) mmHg
  Mean (SD) Automated Office-Measured Systolic Blood Pressure at Wk 8: 128.82 (16.45) mmHg
  Mean (SD) Change from Baseline at Week 8 in Automated Office-Measured Diastolic Blood Pressure: −5.64 (7.70) mmHg
  Mean (SD) Change from Baseline at Week 8 in Automated Office-Measured Systolic Blood Pressure: −9.36 (13.49) mmHg
[7]
  Mean (SD) Automated Office-Measured Systolic Blood Pressure at Wk 8: 139.86 (16.99) mmHg
  Mean (SD) Change from Baseline at Week 8 in Automated Office-Measured Systolic Blood Pressure: −14.14 (13.63) mmHg
[8]
  Mean (SD) Automated Office-Measured Systolic Blood Pressure at Wk 8: 120.70 (13.06) mmHg
  Mean (SD) Change from Baseline at Week 8 in Automated Office-Measured Systolic Blood Pressure: −12.50 (13.48) mmHg
[9]
  Mean (SD) Automated Office-Measured Systolic Blood Pressure at Wk 8: 135.45 (15.29) mmHg
  Mean (SD) Change from Baseline at Week 8 in Automated Office-Measured Systolic Blood Pressure: −5.41 (14.64) mmHg
[10]
  Automated Office-Measured Diastolic Blood Pressure, Week 8, Mean (SD): 74.36 (8.31) mmHg
  Mean (SD) Automated Office-Measured Systolic Blood Pressure at Wk 8: 132.45 (15.21) mmHg
  Mean (SD) Change from Baseline at Week 8 in Automated Office-Measured Diastolic Blood Pressure: −6.09 (7.34) mmHg
  Mean (SD) Change from Baseline at Week 8 in Automated Office-Measured Systolic Blood Pressure: −9.32 (14.08) mmHg
[11]
  Automated Office-Measured Diastolic Blood Pressure, Week 8, Mean (SD): 76.12 (15.60) mmHg
  Mean (SD) Automated Office-Measured Systolic Blood Pressure at Wk 8: 130.53 (17.84) mmHg
  Mean (SD) Change from Baseline at Week 8 in Automated Office-Measured Diastolic Blood Pressure: −2.12 (13.83) mmHg
  Mean (SD) Change from Baseline at Week 8 in Automated Office-Measured Systolic Blood Pressure: −10.65 (14.39) mmHg
50 mg QD, ACEi/ARB No
  Mean (SD) Automated Office-Measured Systolic Blood Pressure at Wk 8: 131.13 (13.27) mmHg
  Mean (SD) Change from Baseline at Week 8 in Automated Office-Measured Systolic Blood Pressure: −6.75 (15.62) mmHg
50 mg QD, ACEi/ARB Yes
  Mean (SD) Automated Office-Measured Systolic Blood Pressure at Wk 8: 127.65 (14.07) mmHg

Reference: patent US20260053811A1, “METHODS OF TREATING HYPERTENSION IN OBESE SUBJECTS” (Mineralys Therapeutics, Inc., priority 2022, published 2026)
